Experimental data taken from US10456407B2, “Combination therapy for treating cancer” (Epizyme, Inc., priority 2015, dated 2019).

Tested on: WSU-DLCL2 cells
Test: RT2 Glucocorticoid signaling PCR array, WSU-DLCL2 (WSU) cell line (Table 4c)
Format: cell-based

For `CCN(c1cc(-c2ccc(CN3CCOCC3)cc2)cc(C(=O)NCc2c(C)cc(C)[nH]c2=O)c1C)C1CCOCC1` [Compound 44], the “Ct Values, ACTB” value (gene ACTB) was 15.450, the “ΔCT (B2M), ACTB” value (gene ACTB) was −4.235 and the “Ct Values, ADARB1” value (gene ADARB1) was 25.386. For the same compound, the “ΔCT (B2M), ADARB1” value (gene ADARB1) was 5.701, the “ΔΔCT, ADARB1” value (gene ADARB1, compared to DMSO) was −1.165 and the “Ct Values, AFF1” value (gene AFF1) was 27.925. For the same compound, the “ΔCT (B2M), AFF1” value (gene AFF1) was 8.240, the “ΔΔCT, AFF1” value (gene AFF1, compared to DMSO) was −0.413 and the “Ct Values, AK2” value (gene AK2) was 21.365. The “ΔCT (B2M), AK2” value (gene AK2) was 1.680, the “ΔΔCT, AK2” value (gene AK2, compared to DMSO) was 0.486 and the “Ct Values, AMPD3” value (gene AMPD3) was 27.162. For the same compound, the “ΔCT (B2M), AMPD3” value (gene AMPD3) was 7.477, the “ΔΔCT, AMPD3” value (gene AMPD3, compared to DMSO) was −1.540 and the “Ct Values, ANGPTL4” value (gene ANGPTL4) was 30.487. The “ΔCT (B2M), ANGPTL4” value (gene ANGPTL4) was 10.802, the “ΔΔCT, ANGPTL4” value (gene ANGPTL4, compared to DMSO) was −1.192 and the “Ct Values, ANXA4” value (gene ANXA4) was 24.659. The “ΔCT (B2M), ANXA4” value (gene ANXA4) was 4.974, the “ΔΔCT, ANXA4” value (gene ANXA4, compared to DMSO) was −3.312 and the “Ct Values, AQP1” value (gene AQP1) was 33.645. For the same compound, the “ΔCT (B2M), AQP1” value (gene AQP1) was 13.960, the “Ct Values, ARID68” value (gene ARID68) was 26.126 and the “ΔCT (B2M), ARID68” value (gene ARID68) was 6.441. The “ΔΔCT, ARID68” value (gene ARID68, compared to DMSO) was −0.353, the “Ct Values, ASPH” value (gene ASPH) was 22.415 and the “ΔΔCT, ASPH” value (gene ASPH, compared to DMSO) was −0.105. For the same compound, the “Ct Values, ATF4” value (gene ATF4) was 20.470, the “ΔCT (B2M), ATF4” value (gene ATF4) was 0.785 and the “ΔΔCT, ATF4” value (gene ATF4, compared to DMSO) was 0.361. For the same compound, the “Ct Values, B2M” value (gene B2M (normaliser)) was 19.685, the “ΔCT (B2M), B2M” value (gene B2M (normaliser)) was 0.000 and the “Ct Values, BCL6” value (gene BCL6) was 20.795. The “ΔCT (B2M), BCL6” value (gene BCL6) was 1.110, the “ΔΔCT, BCL6” value (gene BCL6, compared to DMSO) was −0.394 and the “Ct Values, CEBPA” value (gene CEBPA) was 27.014. For the same compound, the “ΔCT (B2M), CEBPA” value (gene CEBPA) was 7.329, the “ΔΔCT, CEBPA” value (gene CEBPA, compared to DMSO) was −1.659 and the “Ct Values, CEBPB” value (gene CEBPB) was 26.770. For the same compound, the “ΔCT (B2M), CEBPB” value (gene CEBPB) was 7.085, the “ΔΔCT, CEBPB” value (gene CEBPB, compared to DMSO) was 1.269 and the “Ct Values, CREB1” value (gene CREB1) was 23.413. For the same compound, the “ΔCT (B2M), CREB1” value (gene CREB1) was 3.728, the “ΔΔCT, CREB1” value (gene CREB1, compared to DMSO) was 0.008 and the “Ct Values, CREB3” value (gene CREB3) was 25.459. For the same compound, the “ΔCT (B2M), CREB3” value (gene CREB3) was 5.774, the “ΔΔCT, CREB3” value (gene CREB3, compared to DMSO) was −0.085 and the “Ct Values, CREB3L4” value (gene CREB3L4) was 24.392. The “ΔCT (B2M), CREB3L4” value (gene CREB3L4) was 4.707, the “ΔΔCT, CREB3L4” value (gene CREB3L4, compared to DMSO) was −0.915 and the “Ct Values, CYB561” value (gene CYB561) was 31.478. For the same compound, the “ΔCT (B2M), CYB561” value (gene CYB561) was 11.793, the “ΔΔCT, CYB561” value (gene CYB561, compared to DMSO) was −5.631 and the “Ct Values, DDIT4” value (gene DDIT4) was 24.404. For the same compound, the “ΔCT (B2M), DDIT4” value (gene DDIT4) was 4.719, the “ΔΔCT, DDIT4” value (gene DDIT4, compared to DMSO) was −0.060 and the “Ct Values, DUSP1” value (gene DUSP1) was 27.284. For the same compound, the “ΔCT (B2M), DUSP1” value (gene DUSP1) was 7.599, the “ΔΔCT, DUSP1” value (gene DUSP1, compared to DMSO) was 1.370 and the “Ct Values, EDN1” value (gene EDN1) was 26.349. The “ΔCT (B2M), EDN1” value (gene EDN1) was 6.664, the “Ct Values, EHD3” value (gene EHD3) was 24.270 and the “ΔCT (B2M), EHD3” value (gene EHD3) was 4.585. The “ΔΔCT, EHD3” value (gene EHD3, compared to DMSO) was −5.639, the “Ct Values, ERRFI1” value (gene ERRFI1) was 32.771 and the “ΔCT (B2M), ERRFI1” value (gene ERRFI1) was 13.086. The “Ct Values, FK8PS” value (gene FK8PS) was 23.267, the “ΔCT (B2M), FK8PS” value (gene FK8PS) was 3.582 and the “ΔΔCT, FK8PS” value (gene FK8PS, compared to DMSO) was 0.159. The “Ct Values, FOSL2” value (gene FOSL2) was 34.140, the “ΔCT (B2M), FOSL2” value (gene FOSL2) was 14.455 and the “ΔΔCT, FOSL2” value (gene FOSL2, compared to DMSO) was 2.796. The “Ct Values, GAPDH” value (gene GAPDH) was 17.275, the “ΔCT (B2M), GAPDH” value (gene GAPDH) was −2.410 and the “Ct Values, GDPD1” value (gene GDPD1) was 27.494. The “ΔCT (B2M), GDPD1” value (gene GDPD1) was 7.809, the “ΔΔCT, GDPD1” value (gene GDPD1, compared to DMSO) was −1.112 and the “Ct Values, GHRHR” value (gene GHRHR) was 39.957. For the same compound, the “ΔCT (B2M), GHRHR” value (gene GHRHR) was 20.272, the “ΔΔCT, GHRHR” value (gene GHRHR, compared to DMSO) was 5.086 and the “Ct Values, GLUL” value (gene GLUL) was 28.395. For the same compound, the “ΔCT (B2M), GLUL” value (gene GLUL) was 8.710, the “Ct Values, GOT1” value (gene GOT1) was 23.827 and the “ΔCT (B2M), GOT1” value (gene GOT1) was 4.142. For the same compound, the “ΔΔCT, GOT1” value (gene GOT1, compared to DMSO) was 0.708, the “Ct Values, H6PD” value (gene H6PD) was 25.976 and the “ΔCT (B2M), H6PD” value (gene H6PD) was 6.291. The “ΔΔCT, H6PD” value (gene H6PD, compared to DMSO) was −0.619, the “Ct Values, HNRPLL” value (gene HNRPLL) was 24.170 and the “ΔCT (B2M), HNRPLL” value (gene HNRPLL) was 4.485. The “ΔΔCT, HNRPLL” value (gene HNRPLL, compared to DMSO) was −0.037, the “Ct Values, HPRT1” value (gene HPRT1) was 22.793 and the “ΔCT (B2M), HPRT1” value (gene HPRT1) was 3.108. The “Ct Values, IL1RN” value (gene IL1RN) was 28.388, the “ΔCT (B2M), IL1RN” value (gene IL1RN) was 8.703 and the “Ct Values, IL6R” value (gene IL6R) was 33.814. For the same compound, the “ΔCT (B2M), IL6R” value (gene IL6R) was 14.129, the “Ct Values, IL10” value (gene IL10) was 34.229 and the “ΔCT (B2M), IL10” value (gene IL10) was 14.544. For the same compound, the “Ct Values, KLF9” value (gene KLF9) was 28.881, the “ΔCT (B2M), KLF9” value (gene KLF9) was 9.196 and the “ΔΔCT, KLF9” value (gene KLF9, compared to DMSO) was −2.195. The “Ct Values, KLF13” value (gene KLF13) was 23.800, the “ΔCT (B2M), KLF13” value (gene KLF13) was 4.115 and the “ΔΔCT, KLF13” value (gene KLF13, compared to DMSO) was −0.974. The “Ct Values, LOX” value (gene LOX) was 34.399, the “ΔCT (B2M), LOX” value (gene LOX) was 14.714 and the “ΔΔCT, LOX” value (gene LOX, compared to DMSO) was −0.102.
